The values below come from US20240025906A1 (NEURON23, INC., priority 2022, published 2024).

Assay [1] deals with JAK1/TYK2 pSTAT5 (Tyr694/699) in THP-1 cell line. As to the kind of experiment: IFNa-stimulated JAK1/TYK2 pSTAT5 (Tyr694/699) inhibition cellular assay, AlphaLISA. In kind it is cell-based. To be noted: Homo sapiens; THP-1 cells, IFNa-stimulated, AlphaLISA (Assay B); read-out: Cellular_THP1_IFNa-pSTATS_TYK2. In short, it runs like this: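 An eight-point 6-fold titration of compound (0.04–10000 nM final) is given to THP-1 cells for 1 h before 30 min of IFNa exposure. Phospho-STAT5 is read by AlphaLISA at 615 nm. IC50 values are derived by logistic regression with bottom set to 0 and Hill slope set to −1.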
(Bead proximity is the source of the signal in Alpha formats.)

The next assay has as its target T1, TYK2 JH2 (Homo sapiens, UniProt P29597).
T1 construct: purchased DiscoverX (KINOMEscan KdELECT service); host or cells: E. coli BL21-derived (T7 phage display) or HEK-293
As to the kind of experiment: TYK2 JH2 binding assay (KINOMEscan KdELECT competitive binding). To be noted: TYK2 JH2 domain, DiscoverX KINOMEscan KdELECT (Assay A); read-out: Biochemical TYK2_DiscoverX_JH2_BND_Kd. The procedure, abridged: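 Beads carrying a biotinylated ligand were mixed with tagged JH2 kinase and compound (11 points, 3-fold steps, 0.9% DMSO) and shaken 1 h at room temperature. After washing, kinase was released with 0.5 μM untagged ligand over 30 min and measured by qPCR to derive Kd.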

Molecules are shown by their SMILES.

T1 sequence (P29597 589-875 limits assumed): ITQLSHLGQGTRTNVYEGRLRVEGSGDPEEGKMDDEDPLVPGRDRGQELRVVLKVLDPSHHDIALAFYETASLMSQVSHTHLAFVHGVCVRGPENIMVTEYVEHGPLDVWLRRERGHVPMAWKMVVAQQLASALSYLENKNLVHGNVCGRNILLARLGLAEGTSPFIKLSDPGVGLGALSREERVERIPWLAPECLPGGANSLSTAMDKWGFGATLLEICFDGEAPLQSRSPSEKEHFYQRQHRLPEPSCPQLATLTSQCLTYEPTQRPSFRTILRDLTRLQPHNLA

Turning to `CNc1ncc(-c2nc3cc(OC[C@H](C)O)ccc3o2)c2cc(NC(=O)C3CC3)ncc12` [Example 240, (S)—N-(5-(5-(2-hydroxypropoxy)benzo[d]oxazol-2-yl)-8-(methylamino)-2,7-naphthyridin-3-yl)cyclopropanecarboxamide], in assay [1], the IC50 was no more than 500 nM. In addition, the Kd at TYK2 JH2 is no more than 100 nM.
On to `CNc1ncc(-c2nc3cc(OC[C@@H](C)OC)ccc3o2)c2cc(NC(=O)C3CC3)ncc12` [Example 241, (R)—N-(5-(5-(2-methoxypropoxy)benzo[d]oxazol-2-yl)-8-(methylamino)-2,7-naphthyridin-3-yl)cyclopropanecarboxamide], for which the IC50 in assay [1] is no more than 500 nM. Besides, the Kd on TYK2 JH2 is no more than 100 nM.
On to `CNc1ncc(-c2nc3cc(OC[C@H](C)OC)ccc3o2)c2cc(NC(=O)C3CC3)ncc12` [Example 242, (S)—N-(5-(5-(2-methoxypropoxy)benzo[d]oxazol-2-yl)-8-(methylamino)-2,7-naphthyridin-3-yl)cyclopropanecarboxamide], for which, in assay [1], the IC50 is no more than 500 nM. The Kd on TYK2 JH2 was no more than 100 nM.
For the compound `CNc1ncc(-c2nc3cc(C(C)(F)F)ccc3o2)c2cc(NC(=O)C3CC3)ncc12` [Example 243, N-(5-(5-(1,1-difluoroethyl)benzo[d]oxazol-2-yl)-8-(methylamino)-2,7-naphthyridin-3-yl)cyclopropanecarboxamide], the IC50 in assay [1] was no more than 500 nM. Besides, the Kd at TYK2 JH2 was no more than 100 nM.
For `CNc1ncc(-c2nc3cc(C(F)F)ccc3o2)c2cc(NC(=O)C3CC3)ncc12` [Example 244, N-(5-(5-(difluoromethyl)benzo[d]oxazol-2-yl)-8-(methylamino)-2,7-naphthyridin-3-yl)cyclopropanecarboxamide], the IC50 in assay [1] was no more than 500 nM. The Kd on TYK2 JH2 is no more than 100 nM.
Taken in the same sequence, the figures for `CNc1ncc(-c2nc3cc(CC#N)ccc3o2)c2cc(NC(=O)C3CC3)ncc12` [Example 245, N-(5-(5-(cyanomethyl)benzo[d]oxazol-2-yl)-8-(methylamino)-2,7-naphthyridin-3-yl)cyclopropanecarboxamide] were no more than 500 nM and no more than 100 nM.
For `CCOc1ccc2oc(-c3cnc(NC)c4cnc(NC(=O)C5CC5)cc34)nc2c1` [Example 246, N-(5-(5-ethoxybenzo[d]oxazol-2-yl)-8-(methylamino)-2,7-naphthyridin-3-yl)cyclopropanecarboxamide], the IC50 in assay [1] is no more than 500 nM. In addition, the Kd at TYK2 JH2 is no more than 100 nM.
For the compound `CNc1ncc(-c2nc3cc(OCC(F)F)ccc3o2)c2cc(NC(=O)C3CC3)ncc12` [Example 247, N-(5-(5-(2,2-difluoroethoxy)benzo[d]oxazol-2-yl)-8-(methylamino)-2,7-naphthyridin-3-yl)cyclopropanecarboxamide], the IC50 in assay [1] was no more than 500 nM. Besides, the Kd at TYK2 JH2 was no more than 100 nM.
As to `CNc1ncc(-c2nc3cc(COC)ccc3o2)c2cc(NC(=O)C3CC3)ncc12` [Example 248, N-(5-(5-(methoxymethyl)benzo[d]oxazol-2-yl)-8-(methylamino)-2,7-naphthyridin-3-yl)cyclopropanecarboxamide], in assay [1], the IC50 was no more than 500 nM. The Kd on TYK2 JH2 was no more than 100 nM.
For the compound `CNc1ncc(-c2nc3cc(C4CCOCC4C)ccc3o2)c2cc(NC(=O)C3CC3)ncc12` (stereo not shown) [Example 249, N-(8-(methylamino)-5-(5-(3-methyltetrahydro-2H-pyran-4-yl)benzo[d]oxazol-2-yl)-2,7-naphthyridin-3-yl)cyclopropanecarboxamide], the IC50 in assay [1] is no more than 500 nM. For the same compound, the Kd at TYK2 JH2 is no more than 100 nM.
For `CNc1ncc(-c2nc3cc(OC4CN(S(C)(=O)=O)C4)ccc3o2)c2cc(NC(=O)C3CC3)ncc12` [Example 250, N-(8-(methylamino)-5-(5-((1-(methylsulfonyl)azetidin-3-yl)oxy)benzo[d]oxazol-2-yl)-2,7-naphthyridin-3-yl)cyclopropanecarboxamide], the IC50 in assay [1] is no more than 500 nM. Also, on TYK2 JH2, the Kd is no more than 100 nM.
Taken in the same sequence, the figures for `CNc1ncc(-c2nc3cc(OC4CN(C5CCOC5)C4)ccc3o2)c2cc(NC(=O)C3CC3)ncc12` (stereo not shown) [Example 251, N-(8-(methylamino)-5-(5-((1-(tetrahydrofuran-3-yl)azetidin-3-yl)oxy)benzo[d]oxazol-2-yl)-2,7-naphthyridin-3-yl)cyclopropanecarboxamide] were no more than 500 nM and no more than 100 nM.
With `CNc1ncc(-c2nc3cc(C4CN(S(C)(=O)=O)C4)ccc3o2)c2cc(NC(=O)C3CC3)ncc12` [Example 252, N-(8-(methylamino)-5-(5-(1-(methylsulfonyl)azetidin-3-yl)benzo[d]oxazol-2-yl)-2,7-naphthyridin-3-yl)cyclopropanecarboxamide], in assay [1], the IC50 was no more than 500 nM. Moreover, the Kd at TYK2 JH2 is no more than 100 nM.
As for `CNc1ncc(-c2nc3cc(OC4CCOCC4)ccc3o2)c2cc(NC(=O)C3CC3)ncc12` [Example 253, N-(8-(methylamino)-5-(5-((tetrahydro-2H-pyran-4-yl)oxy)benzo[d]oxazol-2-yl)-2,7-naphthyridin-3-yl)cyclopropanecarboxamide], in assay [1], the IC50 is no more than 500 nM. Besides, the Kd on TYK2 JH2 is no more than 100 nM.
Consider `CNc1ncc(-c2nc3ccc(CO)cc3o2)c2cc(NC(=O)C3CC3)ncc12` [Example 254, N-(5-(6-(hydroxymethyl)benzo[d]oxazol-2-yl)-8-(methylamino)-2,7-naphthyridin-3-yl)cyclopropanecarboxamide], for which the IC50 in assay [1] is no more than 500 nM. The Kd on TYK2 JH2 is no more than 100 nM.
As to `CNc1ncc(-c2nc3cc(CC(F)(F)F)ccc3o2)c2cc(NC(=O)C3CC3)ncc12` [Example 255, N-(8-(methylamino)-5-(5-(2,2,2-trifluoroethyl)benzo[d]oxazol-2-yl)-2,7-naphthyridin-3-yl)cyclopropanecarboxamide], the IC50 in assay [1] is no more than 500 nM. Further, the Kd on TYK2 JH2 is no more than 100 nM.
For `CNc1ncc(-c2nc3cc(OCC(C)(C)OC)ccc3o2)c2cc(NC(=O)C3CC3)ncc12` [Example 256, N-(5-(5-(2-methoxy-2-methylpropoxy)benzo[d]oxazol-2-yl)-8-(methylamino)-2,7-naphthyridin-3-yl)cyclopropanecarboxamide], the IC50 in assay [1] was no more than 500 nM. The Kd at TYK2 JH2 is no more than 100 nM.
For the compound `CNc1ncc(-c2nc3cc(CS(C)(=O)=O)ccc3o2)c2cc(NC(=O)C3CC3)ncc12` [Example 257, N-(8-(methylamino)-5-(5-((methylsulfonyl)methyl)benzo[d]oxazol-2-yl)-2,7-naphthyridin-3-yl)cyclopropanecarboxamide], the IC50 in assay [1] is no more than 500 nM. Also, the Kd on TYK2 JH2 is no more than 100 nM.
`CNc1ncc(-c2nc3cc(C4COC4)ccc3o2)c2cc(NC(=O)C3CC3)ncc12` [Example 258, N-(8-(methylamino)-5-(5-(oxetan-3-yl)benzo[d]oxazol-2-yl)-2,7-naphthyridin-3-yl)cyclopropanecarboxamide]: in assay [1], the IC50 was no more than 500 nM. In addition, the Kd at TYK2 JH2 is no more than 100 nM.
Regarding `CNc1ncc(-c2nc3cc(N4CCOC(C)C4)c(C)cc3o2)c2cc(NC(=O)C3CC3)ncc12` (stereo not shown) [Example 259, N-(5-(6-methyl-5-(2-methylmorpholino)benzo[d]oxazol-2-yl)-8-(methylamino)-2,7-naphthyridin-3-yl)cyclopropanecarboxamide], the IC50 in assay [1] is no more than 500 nM. For the same compound, the Kd on TYK2 JH2 is no more than 100 nM.
With `CNc1ncc(-c2nc3cccc(N4CCC4COC)c3o2)c2cc(NC(=O)C3CC3)ncc12` (stereo not shown) [Example 263, N-(5-(7-(2-(methoxymethyl)azetidin-1-yl)benzo[d]oxazol-2-yl)-8-(methylamino)-2,7-naphthyridin-3-yl)cyclopropanecarboxamide], the IC50 in assay [1] was greater than 500 nM. Moreover, the Kd at TYK2 JH2 is no more than 100 nM.
Take `CNc1ncc(-c2nc3cccc(N4CC(COC)C4)c3o2)c2cc(NC(=O)C3CC3)ncc12` [Example 264, N-(5-(7-(3-(methoxymethyl)azetidin-1-yl)benzo[d]oxazol-2-yl)-8-(methylamino)-2,7-naphthyridin-3-yl)cyclopropanecarboxamide]: the IC50 in assay [1] is no more than 500 nM. For the same compound, the Kd on TYK2 JH2 was no more than 100 nM.
Taken in the same sequence, the figures for `CNc1ncc(-c2nc3cccc(N4CCC4CO)c3o2)c2cc(NC(=O)C3CC3)ncc12` (stereo not shown) [Example 265, N-(5-(7-(2-(hydroxymethyl)azetidin-t-yl)benzo[d]oxazol-2-yl)-8-(methylamino)-2,7-naphthyridin-3-yl)cyclopropanecarboxamide] were no more than 500 nM and no more than 100 nM.
Consider `CNc1ncc(-c2nc3cccc(CC#N)c3o2)c2cc(NC(=O)C3CC3)ncc12` [Example 266, N-(5-(7-(cyanomethyl)benzo[d]oxazol-2-yl)-8-(methylamino)-2,7-naphthyridin-3-yl)cyclopropanecarboxamide], for which the IC50 in assay [1] was no more than 500 nM. Besides, the Kd at TYK2 JH2 is no more than 100 nM.
As to `CNc1ncc(-c2nc3cccc(COC)c3o2)c2cc(NC(=O)C3CC3)ncc12` [Example 267, N-(5-(7-(methoxymethyl)benzo[d]oxazol-2-yl)-8-(methylamino)-2,7-naphthyridin-3-yl)cyclopropanecarboxamide], in assay [1], the IC50 was no more than 500 nM. Further, the Kd on TYK2 JH2 is no more than 100 nM.
Regarding `CCO/C=C\c1cccc2nc(-c3cnc(NC)c4cnc(NC(=O)C5CC5)cc34)oc12` [Example 268, (Z)—N-(5-(7-(2-ethoxyvinyl)benzo[d]oxazol-2-yl)-8-(methylamino)-2,7-naphthyridin-3-yl)cyclopropanecarboxamide], the IC50 in assay [1] was no more than 500 nM. Also, on TYK2 JH2, the Kd is no more than 100 nM.
